Laboratory results as given in patent US10556900B2, “TrkA kinase inhibitors, compositions and methods thereof” (Merck Sharp & Dohme Corp., priority 2015, dated 2020).
pIC50: −log10 of the molar value.

Target: human TrkA receptor (Homo sapiens (Human), UniProt P04629)
Assay: TrkA functional activity, DiscoverX PathHunter assay (NGF-stimulated U2OS cells)
Assay type: cell-based
Details: U2OS cells expressing human TrkA-Prolink, Shc1-EA and p75NTR; compound 1 h, then NGF (~80% of maximal response) 3 h; luminescence
Method: TrkA functional activity was measured using a DiscoverX PathHunter assay. In this assay, U2OS cells express the human TrkA receptor as a fusion with the weakly complementing fragment of B-galactosidase, which DiscoverX calls “Prolink (PK)”; additionally, Shc1 is fused with a larger fragment, which is called “Enzyme Acceptor (EA)”. Activation of the TrkA receptor, upon NGF addition, results in the kinase domain being phosphorylated, resulting in subsequent recruitment of Shc1-EA protein. That recruitment results in an active B-galactosidase enzyme that is detected by addition of a chemiluminescent substrate. The human p75^NTR protein was also expressed as a co-receptor for NGF.
All reagents were purchased from DiscoverX, except for the receptor agonists (NGF, BDNF, NT3) which were purchased from Peprotech. Cells were expanded and frozen into cryovials, and stored in the vapor phase of liquid nitrogen, and thawed immediately before use. Thawed cells were added to a 384-well plate at 7500 cells/well, and allowed to incubate overnight. Compound at various concentrations was added the following morning and allowed to incubate on cells for 1 h. Then, NGF was added at a concentration sufficient to elicit ˜80% of a maximal response and allowed to incubate for 3 h at ambient temperature. DiscoverX PathHunter detection reagent was then added and the plate was further incubated for 1 h in the dark. The plate was then read via luminescence on the Perkin Elmer Envision.

Sequence of human TrkA receptor (P04629 33-796): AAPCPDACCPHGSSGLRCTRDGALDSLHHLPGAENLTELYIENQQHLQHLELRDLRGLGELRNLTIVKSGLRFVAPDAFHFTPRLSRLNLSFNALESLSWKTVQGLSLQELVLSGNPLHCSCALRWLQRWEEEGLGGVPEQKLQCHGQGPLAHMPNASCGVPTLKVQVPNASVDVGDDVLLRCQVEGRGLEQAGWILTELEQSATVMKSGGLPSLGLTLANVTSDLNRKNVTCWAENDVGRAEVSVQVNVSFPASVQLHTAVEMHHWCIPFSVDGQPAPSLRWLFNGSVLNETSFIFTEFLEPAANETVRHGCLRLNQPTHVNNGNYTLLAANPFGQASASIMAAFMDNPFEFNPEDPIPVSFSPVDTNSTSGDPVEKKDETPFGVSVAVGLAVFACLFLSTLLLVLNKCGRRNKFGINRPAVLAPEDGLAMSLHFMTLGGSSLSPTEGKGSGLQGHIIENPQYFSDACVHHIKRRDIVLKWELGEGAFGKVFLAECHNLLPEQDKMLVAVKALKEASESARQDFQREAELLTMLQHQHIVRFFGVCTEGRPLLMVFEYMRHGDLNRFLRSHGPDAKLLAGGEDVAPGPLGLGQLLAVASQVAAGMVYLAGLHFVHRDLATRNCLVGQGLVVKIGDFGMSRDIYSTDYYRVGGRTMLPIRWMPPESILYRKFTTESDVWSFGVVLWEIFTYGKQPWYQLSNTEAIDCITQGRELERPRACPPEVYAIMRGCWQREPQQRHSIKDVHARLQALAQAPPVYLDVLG

| SMILES | pIC50 |
| --- | --- |
| Cn1ccc(-c2cc(C(=O)Nc3c(-c4ccccc4)ccn4c(C(N)=O)cnc34)sc2C(F)(F)F)n1 [Compound 67, 8-(4-(1-Methyl-1H-pyrazol-3-yl)-5-(trifluoromethyl)thiophene-2-carboxamido)-7-phenylimidazo[1,2-a]pyridine-3-carboxamide] | 7.25 |
| Cn1ccc(-c2cc(C(=O)Nc3c(-c4ccccc4)ccn4cc(C(C)(C)O)nc34)ccc2C(F)(F)F)n1 [Compound 2, N-(2-(2-Hydroxypropan-2-yl)-7-phenylimidazo[1,2-a]pyridin-8-yl)-3-(1-methyl-1H-pyrazol-3-yl)-4-(trifluoromethyl)benzamide] | 6.86 |
| CC(C)(O)c1cnc2c(NC(=O)c3cc(-c4ncccn4)c(C(F)(F)F)cc3F)c(-c3cccc(CO)c3)ccn12 [Compound 57, 2-Fluoro-N-(7-(3-(hydroxymethyl)phenyl)-3-(2-hydroxypropan-2-yl)imidazo[1,2-a]pyridin-8-yl)-5-(pyrimidin-2-yl)-4-(trifluoromethyl)benzamide] | 6.70 |
| [2H]C([2H])(O)c1cnc2c(NC(=O)c3cc(-c4ncccn4)c(C(F)(F)F)cc3F)c(-c3ccccc3)ccn12 [Compound 35, 2-Fluoro-N-(3-(hydroxymethyl-d2)-7-phenylimidazo[r 12-a]pyridin-8-yl)-5-(pyrimidin-2-yl)-4-(trifluoromethyl)benzamide] | 8.36 |
| Cn1ccc(-c2cc(C(=O)Nc3c(-c4ccccc4)ccn4c(CO)cnc34)c(F)cc2C(F)(F)F)n1 [Compound 23, 2-fluoro-N-[3-(hydroxymethyl)-7-phenylimidazo[1,2-a]pyridin-8-yl]-5-(1-methyl-1H-pyrazol-3-yl)-4-(trifluoromethyl)benzamide] | 9.28 |
| CC(C)(O)c1cnc2c(NC(=O)c3cc(-c4cc[nH]n4)c(C(F)(F)F)cc3F)c(-c3ccccc3)ccn12 [Compound 31, 2-fluoro-N-[3-(1-hydroxy-1-methylethyl)-7-phenylimidazo[1,2-a]pyridin-8-yl]-5-(1H-pyrazol-3-yl)-4-(trifluoromethyl)benzamide] | 9.03 |
| CC(C)(O)c1cnc2c(NC(=O)c3cc(-c4ncccn4)c(C(F)(F)F)cc3F)c(-c3ccc(F)cc3)ccn12 [Compound 54, 2-fluoro-N-[7-(4-fluorophenyl)-3-(1-hydroxy-1-methylethyl)imidazo[1,2-a]pyridin-8-yl]-5-pyrimidin-2-yl-4-(trifluoromethyl)benzamide] | 7.24 |
| CC(O)c1cnc2c(NC(=O)c3cc(-c4ccccn4)c(C(F)(F)F)cc3F)c(-c3ccccc3)ccn12 (single isomer, unassigned) [Compound 29, (R) or (S)-2-fluoro-N-[3-(1-hydroxyethyl)-7-phenylimidazo[1,2-a]pyridin-8-yl]-5-pyridin-2-yl-4-(trifluoromethyl)benzamide] | 8.77 |
| CC(O)c1cnc2c(NC(=O)c3cc(-c4ncccn4)c(C(F)(F)F)cc3F)c(-c3ccccc3)ccn12 (single isomer, unassigned) [Compound 10, (R) or (S)-2-Fluoro-N-(3-(1-hydroxyethyl)-7-phenylimidazo[1,2-a]pyridin-8-yl)-5-(pyrimidin-2-yl)-4-(trifluoromethyl)benzamide] | 8.96 |
| CC(C)(O)c1n[nH]c2c(NC(=O)c3cc(-c4ncccn4)c(C(F)(F)F)cc3F)c(-c3ccccc3)ccc12 [Compound 45, 2-Fluoro-N-(3-(2-hydroxypropan-2-yl)-6-phenyl-1H-indazol-7-yl)-5-(pyrimidin-2-yl)-4-(trifluoromethyl)benzamide] | 8.37 |
| CC(O)c1n[nH]c2c(NC(=O)c3cc(-c4ncccn4)c(C(F)(F)F)cc3F)c(-c3ccccc3)ccc12 (racemic) [Compound 47, (R) and (S)-2-Fluoro-N-(3-(1-hydroxyethyl)-6-phenyl-1H-indazol-7-yl)-5-(pyrimidin-2-yl)-4-(trifluoromethyl)benzamide] | 8.35 |
| CC(C)(O)c1cnn2c(NC(=O)c3cc(-c4ncccn4)c(C(F)(F)F)cc3F)c(-c3ccccc3)ccc12 [Compound 38, 2-fluoro-N-[3-(1-hydroxy-1-methylethyl)-6-phenylpyrazolo[1,5-a]pyridin-7-yl]-5-pyrimidin-2-yl-4-(trifluoromethyl)benzamide] | 8.74 |
| O=C(Nc1c(-c2ccccc2)ccn2c(CO)cnc12)c1cc(-c2ccccn2)c(C(F)(F)F)cc1F [Compound 24, 2-fluoro-N-[3-(hydroxymethyl)-7-phenylimidazo[1,2-a]pyridin-8-yl]-5-pyridin-2-yl-4-(trifluoromethyl)benzamide] | 8.60 |
| CC(C)(O)c1cnc2c(NC(=O)c3cc(-c4ncccn4)c(C(F)(F)F)cc3Cl)c(-c3ccccc3)ccn12 [Compound 20, 2-chloro-N-[3-(1-hydroxy-1-methylethyl)-7-phenylimidazo[1,2-a]pyridin-8-yl]-5-pyrimidin-2-yl-4-(trifluoromethyl)benzamide] | 7.80 |
| Cn1ccc(-c2cc(C(=O)Nc3c(-c4ccccc4)ccc4nc(C(C)(C)O)sc34)ccc2C(F)(F)F)n1 [Compound 3, N-(2-(2-Hydroxypropan-2-yl)-6-phenylbenzo[d]thiazol-7-yl)-3-(1-methyl-1H-pyrazol-3-yl)-4-(trifluoromethyl)benzamide] | 6.49 |
| Cn1ccc(-c2cc(C(=O)Nc3c(-c4ccccc4)ccn4c(C(N)=O)cnc34)c(F)cc2C(F)(F)F)n1 [Compound 22, 8-({[2-fluoro-5-(1-methyl-1H-pyrazol-3-yl)-4-(trifluoromethyl)phenyl]carbonyl}amino)-7-phenylimidazo[1,2-a]pyridine-3-carboxamide] | 9.29 |
| Cc1ccccc1-c1ccn2c(C(N)=O)cnc2c1NC(=O)c1cc(-c2ccn(C)n2)c(C(F)(F)F)cc1F [Compound 56, 8-(2-Fluoro-5-(1-methyl-1H-pyrazol-3-yl)-4-(trifluoromethyl)benzamido)-7-(o-tolyl)imidazo[1,2-a]pyridine-3-carboxamide] | 7.54 |
| Cn1ccc(-c2cc(C(=O)Nc3c(-c4ccccc4)ccn4c(C(C)(C)O)cnc34)ccc2C(F)(F)F)n1 [Compound 32, N-[3-(1-hydroxy-1-methylethyl)-7-phenylimidazo[1,2-a]pyridin-8-yl]-3-(1-methyl-1H-pyrazol-3-yl)-4-(trifluoromethyl)benzamide] | 8.21 |
| Cn1ccc(-c2cc(C(=O)Nc3c(-c4ccccc4)ccc4sc(C(C)(C)O)nc34)ccc2C(F)(F)F)n1 [Compound 4, N-(2-(2-Hydroxypropan-2-yl)-5-phenylbenzo[d]thiazol-4-yl)-3-(1-methyl-1H-pyrazol-3-yl)-4-(trifluoromethyl)benzamide] | 7.17 |
| Cc1ncc2nc(-c3ccccc3)c(NC(=O)c3ccc(C(F)(F)F)c(-c4ccn(C)n4)c3)cn12 [Compound 62, 3-(1-Methyl-1H-pyrazol-3-yl)-N-(6-methyl-2-phenylimidazo[1,5-a]pyrimidin-3-yl)-4-(trifluoromethyl)benzamide] | 7.33 |
| Cn1ccc(-c2cc(C(=O)Nc3c(-c4ccccc4)ccc4cc(C(C)(C)O)[nH]c34)ccc2C(F)(F)F)n1 [Compound 42, N-(2-(2-Hydroxypropan-2-yl)-6-phenyl-1H-indol-7-yl)-3-(1-methyl-1H-pyrazol-3-yl)-4-(trifluoromethyl)benzamide] | 9.18 |
| O=C(Nc1c(-c2ccccc2)ccn2c(CO)cnc12)c1cc(-c2ncccn2)c(C(F)(F)F)cc1F [Compound 8, 2-Fluoro-N-(3-(hydroxymethyl)-7-phenylimidazo[1,2-a]pyridin-8-yl)-5-(pyrimidin-2-yl)-4-(trifluoromethyl)benzamide] | 8.21 |
| CC(C)(O)c1cc2cc(-c3ccccc3)c(NC(=O)c3cc(-c4ncccn4)c(C(F)(F)F)cc3F)cc2[nH]1 [Compound 44, 2-Fluoro-N-(2-(2-hydroxypropan-2-yl)-5-phenyl-1H-indol-6-yl)-5-(pyrimidin-2-yl)-4-(trifluoromethyl)benzamide] | 7.02 |
| Cn1ccc(-c2cc(C(=O)Nc3c(-c4ccccc4)ccc4c(CO)cnn34)ccc2C(F)(F)F)n1 [Compound 40, N-[3-(hydroxymethyl)-6-phenylpyrazolo[1,5-a]pyridin-7-yl]-3-(1-methyl-1H-pyrazol-3-yl)-4-(trifluoromethyl)benzamide] | 8.85 |
| NC(=O)c1cnc2c(NC(=O)c3cc(-c4ccccn4)c(C(F)(F)F)cc3F)c(-c3ccccc3)ccn12 [Compound 21, 8-({[2-fluoro-5-pyridin-2-yl-4-(trifluoromethyl)phenyl]carbonyl}amino)-7-phenylimidazo[1,2-a]pyridine-3-carboxamide] | 8.43 |
| CC(O)c1cnc2c(NC(=O)c3cc(-c4cc[nH]n4)c(C(F)(F)F)cc3F)c(-c3ccccc3)ccn12 (single isomer, unassigned) [Compound 27, (R) or (S)-2-fluoro-N-[3-(1-hydroxyethyl)-7-phenylimidazo[1,2-a]pyridin-8-yl]-5-(1H-pyrazol-3-yl)-4-(trifluoromethyl)benzamide] | 8.46 |
| CC(C)(O)c1ncn2c(NC(=O)c3cc(-c4ncccn4)c(C(F)(F)F)cc3F)c(-c3ccccc3)ccc12 [Compound 59] | 7.60 |
| CC(O)c1nc2c(NC(=O)c3ccc(C(F)(F)F)c(-c4ccn(C)n4)c3)c(-c3ccccc3)ccc2s1 (single isomer, unassigned) [Compound 5, (R and S)—N-(2-(1-Hydroxyethyl)-5-phenylbenzo[d]thiazol-4-yl)-3-(1-methyl-1H-pyrazol-3-yl)-4-(trifluoromethyl)benzamide] | 7.89 |
